Source: patent publication US7598280B2, “Heterocyclic compounds, compositions comprising them and methods of their use” (Lexicon Pharmaceuticals, Inc., priority 2007, dated 2009)

What was measured:
[1] = test system: circulating lymphocytes; test: Measuring effects on lymphocytes in mice; format: in vivo
Procedure: Unless otherwise indicated, the term “circulating lymphocyte reduction factor” or “CLRF” means the decrease in the number of circulating lymphocytes in mice caused by oral administration of a single dose of a compound at 100 mg/kg, as determined by the method described in the Examples, below.
Compounds were administered by oral gavage or in drinking water. For oral dosing experiments, compounds were resuspended from crystals at 10 mg/ml in vehicle (e.g., water). Mice (F1 hybrids of 129/B6 strain) were gavaged with a single 100 mg/kg dose of compound (equivalent to 100 mpk of the free base for each compound) or a vehicle-only control, and returned to their cages. Mice were anesthetized using isofluorane eighteen hours after dosing and tissues were collected for analysis as described below. For drinking water studies, compounds were dissolved at 50 mg/L in acidified water (pH=2.8) containing 10 g/L glucose. The mice were allowed free access to compound-containing water (or glucose solution as a control) for 72 hours. At the end of 72 hours, tissues were collected for analysis.
CBC measurements were obtained as follows. Mice were anesthetized with isofluorane and blood was collected from the retroorbital plexus into EDTA blood collection tubes (Capiject-MQK, Terumo Medical Corp., Elkton, Md.). […]

[2] = test system: immunological effects; conditions: studies in humans; cited from earlier work
[3] = test system: lymphocytes / mature T cells; conditions: administration to rats and mice; cited from earlier work
[4] = biological target: T1, S1P lyase (Mus musculus, UniProt Q8R0X7); conditions: when administered to mice; cited from earlier work
T1 construct: host or cells: mice (in vivo, endogenous enzyme)
T1 sequence (Q8R0X7 1-568): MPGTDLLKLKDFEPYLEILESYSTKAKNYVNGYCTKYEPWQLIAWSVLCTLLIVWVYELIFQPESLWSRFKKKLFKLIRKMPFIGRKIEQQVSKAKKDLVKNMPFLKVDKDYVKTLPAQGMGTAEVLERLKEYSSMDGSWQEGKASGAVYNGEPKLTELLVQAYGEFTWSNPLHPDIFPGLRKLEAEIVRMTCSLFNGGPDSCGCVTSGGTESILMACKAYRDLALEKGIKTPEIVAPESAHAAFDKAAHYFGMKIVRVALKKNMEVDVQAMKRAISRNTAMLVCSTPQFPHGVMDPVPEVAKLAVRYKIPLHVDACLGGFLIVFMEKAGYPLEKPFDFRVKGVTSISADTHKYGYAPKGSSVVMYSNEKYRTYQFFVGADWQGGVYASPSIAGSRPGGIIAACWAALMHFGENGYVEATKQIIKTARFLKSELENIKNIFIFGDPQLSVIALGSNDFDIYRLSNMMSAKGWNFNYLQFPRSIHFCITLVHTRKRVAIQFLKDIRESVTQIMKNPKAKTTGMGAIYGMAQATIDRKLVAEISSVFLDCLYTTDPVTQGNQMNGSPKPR

SMILES | effect on circulating lymphocytes [1] | immunological effects [2] | accumulation of mature T cells in the thymus [3] | lymphopenia [3] | S1P lyase activity [4]
CC(=O)c1nc(C)c([C@@H](O)[C@H](O)[C@H](O)CO)s1 [1-(4-methyl-5-((1S,2R,3R)-1,2,3,4-tetrahydroxybutyl)thiazol-2-yl)ethanone] | little or no effect |  |  |  | 
CC(=O)c1nc(C(O)C(O)C(O)CO)c[nH]1 (stereo not drawn) [THI, 2-acetyl-4-tetrahydroxybutylimidazole] | capable of reducing circulating lymphocytes | no immunological effects | causes the accumulation of mature T cells in the thymus | induces lymphopenia | inhibits S1P lyase activity
